Assay [1] has as its system α3β4, α3β2, α4β4 and α4β2 vertebrate nAChRs. The following applies: read-out: IC50 of reversible channel block; cited from earlier work.
The target in assay [2] is T1, Cel-EAT-2 and Cel-EAT-18c nAChR (Caenorhabditis elegans, UniProt Q9U298).
T1 sequence (Q9U298 22-474): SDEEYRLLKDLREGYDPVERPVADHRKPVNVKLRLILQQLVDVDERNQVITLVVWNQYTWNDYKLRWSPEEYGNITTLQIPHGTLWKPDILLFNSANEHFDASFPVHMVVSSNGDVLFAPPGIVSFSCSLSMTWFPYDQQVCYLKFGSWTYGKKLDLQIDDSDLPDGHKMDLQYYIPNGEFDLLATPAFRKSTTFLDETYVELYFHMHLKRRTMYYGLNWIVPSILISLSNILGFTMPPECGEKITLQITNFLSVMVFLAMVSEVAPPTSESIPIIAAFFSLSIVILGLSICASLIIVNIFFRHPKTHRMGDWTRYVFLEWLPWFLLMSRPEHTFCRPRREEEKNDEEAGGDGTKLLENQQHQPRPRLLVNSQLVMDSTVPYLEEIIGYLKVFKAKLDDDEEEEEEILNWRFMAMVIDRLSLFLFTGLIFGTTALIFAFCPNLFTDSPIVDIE
The experiment in a line: Two-electrode voltage-clamp of Cel-EAT-2 + Cel-EAT-18c nAChR expressed in Xenopus oocytes. It counts as cell-based.

In assay [3] the target is T2, Cel-EAT-2 and Cel-EAT-18c receptor (Cel-EAT-2 nAChR) (Caenorhabditis elegans, UniProt Q9U298).
T2 construct: homomeric EAT-2 co-expressed with Cel-EAT-18c in Xenopus laevis oocytes
T2 sequence (Q86DB4 entry or part of it, one chain of several): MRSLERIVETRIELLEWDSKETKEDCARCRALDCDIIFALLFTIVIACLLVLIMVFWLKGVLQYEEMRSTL
Kind of assay: Two-electrode voltage-clamp of oocytes expressing Cel-EAT-2 with Cel-EAT-18c; agonist peak currents normalized to 100 uM ACh and fitted to the Hill equation. The assay is classed as cell-based, Xenopus laevis oocytes. The following applies: n = 6; read-out: pEC50 (mean±SEM) (converted).
Method: Oocyte injections and two-electrode electrophysiology recordings were performed as previously described [48].
GraphPad Prism 8.0 software (GraphPad Software Inc., USA) was used to analyze the data. […] We used One-way analysis of variance (ANOVA) and Extra sum of squares F-test to test statistical differences (statistically different if p<0.05). Tukeys’ multiple comparison was used as a post-hoc test.

Assay [4] deals with nAChRs expressed in the pharynx of A. suum. Kind of assay: tissue or blood. The assay is classed as cell-based. As to the method:
A. suum pharyngeal dissections and electrophysiology recordings were adapted from Martin [49]. Briefly, pharynx was dissected out from the head region of the worm and mounted on Sylgard (Sigma-Aldrich Inc., USA)—lined in a double jacketed bath chamber maintained at 28°C. The muscle layer surrounding the anterior 3rd of the pharynx was preserved for anchoring. The intestine attached to the posterior end of the pharynx was used for stretching and pinning down. The preparation was continuously perfused with calcium-free Ascaris Perienteric Fluid-Ringer (calcium-free APF-Ringer) composition (mM): NaCl 23, Na-acetate 110, KCl 24, MgCl2 11, glucose 11, and HEPES 5; NaOH or acetic acid was added to adjust the pH to 7.6. […] The rate of localized perfusion was 3.5–4 ml min^−1 through a 20-gauge needle, which was placed directly above the recording region of the pharynx. […] We used 3 M potassium acetate in our micropipettes to get the final resistances of 4–7 MΩ for the voltage sensing and 0.5–1 MΩ for the current injecting electrode for current-clamp recordings. The current-injecting electrode injected hyperpolarizing step currents of −1000 nA for 500 ms at 0.3 Hz.
We constructed the sigmoidal concentration-response plots by fitting the data by nonlinear regression to determine the pEC50 and the maximal response (Rmax). Extra sum of squares F-test was used to test statistical differences between pEC50, slope, and maximal response. The significance levels were set to P<0.05.
In applications containing arecoline and pilocarpine, we used mecamylamine, a nAChR antagonist (30µM) to inhibit nAChRs and to allow only mAChR activation.

The target of assay [5] is Asu-EAT-2 nAChR (Ascaris suum, UniProt F1L9Y6). Kind of assay: cell-based. The assay is classed as cell-based, A. suum. The following applies: read-out: current response normalized to the control 100 μM ACh current.
Chain of Asu-EAT-2 nAChR (F1L9Y6 entry or part of it): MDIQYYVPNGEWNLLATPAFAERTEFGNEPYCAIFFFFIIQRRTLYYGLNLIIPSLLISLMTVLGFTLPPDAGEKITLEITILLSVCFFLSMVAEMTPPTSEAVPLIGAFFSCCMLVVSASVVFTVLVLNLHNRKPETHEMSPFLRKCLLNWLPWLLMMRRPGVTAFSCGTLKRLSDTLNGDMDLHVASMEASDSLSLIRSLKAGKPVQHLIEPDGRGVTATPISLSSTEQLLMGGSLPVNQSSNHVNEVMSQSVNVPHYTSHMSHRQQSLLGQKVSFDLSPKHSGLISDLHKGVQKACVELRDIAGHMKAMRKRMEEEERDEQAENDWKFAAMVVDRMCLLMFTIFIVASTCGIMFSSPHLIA
Chain of Asu-EAT-2 nAChR (F1L1D9 entry or part of it, further chain): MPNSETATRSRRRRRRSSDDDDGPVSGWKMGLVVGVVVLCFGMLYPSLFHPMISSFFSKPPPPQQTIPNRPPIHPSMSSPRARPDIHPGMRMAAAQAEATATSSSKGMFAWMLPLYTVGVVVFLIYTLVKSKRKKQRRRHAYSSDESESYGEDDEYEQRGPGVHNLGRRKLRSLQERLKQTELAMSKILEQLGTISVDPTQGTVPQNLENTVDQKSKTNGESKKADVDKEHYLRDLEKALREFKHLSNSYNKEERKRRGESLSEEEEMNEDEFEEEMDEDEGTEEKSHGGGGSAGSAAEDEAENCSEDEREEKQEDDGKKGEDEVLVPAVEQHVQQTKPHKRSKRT
In assay [6] the target is T3, Cel-EAT-2 + Asu-EAT-18 + Asu-RIC-3 (Caenorhabditis elegans, UniProt Q9U298).
Assay [7] addresses T3, Cel-EAT-2 + Asu-EAT-18 + Asu-RIC-3. The experiment in a line: cell-based.

Structures are written as SMILES. Read-outs that look alike come from different tables or passages of the source.

The source of these data is paper PMC7173930, “EAT-18 is an essential auxiliary protein interacting with the non-alpha nAChR subunit EAT-2 to form a functional receptor” (PLoS Pathogens, 2020).

On to `CN1[C@@H]2CC[C@H]1C[C@@H](OC(=O)C(CO)c1ccccc1)C2` (some centres unmarked) [atropine], for which the IC50 in assay [1] is 4 to 10 µM.
As for `CCCC(=O)OCC[N+](C)(C)C` [butyrylcholine], the “current response normalized to the control 100 μM ACh current (Imax)” value in assay [2] (agonist 100 μM, mean±SEM, n≥6) came out at 50.0±5.0%. The pEC50 in assay [2] (agonist concentration-response, 100 μM ACh as internal standard, mean±SEM) came to 3.9±0.1. In addition, the “Hill slope (nH)” value in assay [2] (agonist concentration-response, mean±SEM) was 2.8±1.8. In addition, in assay [3], the EC50 was 126 µM.
Take `CN1CCC[C@H]1c1cccnc1` [nicotine]: the EC50 is 63.1 µM in assay [2]; 10 µM in assay [4] (Ascaris suum, read-out: pEC50 (converted)); 18.7 µM in assay [7]. Besides, the “Hill slope (nH)” value in assay [2] was 2.4±0.4; in assay [4] it was 1.7±0.6. The Imax stood at 54.6 ± 2.6% in assay [2] and 96.5 ± 2.3% in assay [6]. In addition, the “current response normalized to the control 100 μM ACh current (Imax)” value in assay [2] was determined as 55 ± 8.0%. In addition, the Emax at 100 µM in assay [2] (read-out: current response normalized to the control 100 μM ACh current (Imax)) stood at 55 ± 8%. In assay [4], this compound showed a maximal response of 79.3 ± 4.3 μS. Besides, the Emax in assay [4] (Ascaris suum, read-out: % change in membrane conductance (δG) normalized to the ACh δG) is 92 ± 6.2%; in assay [5], 105 ± 5.7%.

What is called IC50 is the concentration needed to halve the response being measured. Broadly, the pEC50 is the negative decadic logarithm of the EC50, by convention in mol/L.
